Where two headings read alike, the source gives them in different places.
Columns and labels:
Assay type in all cases: cell-based
cccDNA = cccDNA (digital PCR), HBV-infected HepaRG; settings: for IC50: Hepatitis B virus
pgRNA = experiment: pgRNA, HBV-infected HepaRG; settings: Hepatitis B virus
Experimental: (§1) Following 4 day of maturation with 1 μM MB-1, HLC were incubated with HBV (purified from CHB individuals) at multiplicity of infection (MOI) 10-40 without PEG for 24 hr; virus inoculum was removed the following day. HBV infection in PHH was performed at MOI 40+4% PEG. Compound treatment in HLC and PHH was started at day 3 post infection. Compound (in powder) was dissolved in DMSO; the final concentration of DMSO added to cells is 1%. Fresh compound was replenished every 2 day until cells were harvested at day 10 (PHH), or day 14 (HLC). Compound effect on HBV and cellular toxicity was measured by multiplex assay (HBsAg, HBeAg, albumin), branched DNA (pgRNA), or digital PCR (cccDNA) and depicted as % of inhibition compared to DMSO control. Graphs were prepared using Spotfire software.
Levels of pgRNA in infected cells (96-well plate) were measured using QuantiGene Singleplex 2.0 assay (Affymetrix), a hybridization-based assay that utilizes the xMAP™ Luminex magnetic beads and branched DNA (bDNA) signal amplification technology. The assay is performed in 96-well plate according to manufacturer's recommendation. Briefly, cells were lysed and lysates were incubated with HBV probe sets panel at 50-55° C. for 30 min then stored at −80° C. Signal amplification is achieved via sequential hybridization of PreAmplifier, Amplifier, and Label Probe. After adding Streptavidin phycoerythrin (SAPE) substrate, the signal is read using a FlexMap 3D (Luminex) instrument.
Most of HBV in vitro studies, including evaluation of compound antiviral activity, are performed in hepatoma cell lines (HepaRG or HepG2-NTCP) infected with cell culture-derived HBV (e.g. HepG2.2.15-derived virus, GT D). As evaluation of cccDNA destabilizers was performed with patient-derived HBV GT D in PHH (see FIGS. 3F and 4A-4B), the inventors asked whether compound potency would be similar when tested against patient-derived HBV isolates from other GTs, or cell culture-derived virus (HepG2.2.15). To address the first question, PHH (in 384-well plate) were infected with four clinical HBV isolates (GT A-D, at MOI 40). At day 3 pi, cells were treated with compound 7, or DMSO, every other day until harvested and analysed at day 10 pi. Several observations are noteworthy. First, clinical HBV isolates across GTs varied in their replication capacity in PHH; as noted earlier in HLC (see FIG. 21) and also by others (Mabit et al., 1996; Sozzi et al, 2016). […] For each isolate, the amounts of secreted viral antigens are in close agreement with their cccDNA levels; thus, GT A isolate had the highest amount of cccDNA (˜11,000 copies/well), followed by GT C, B, and D (see FIG. 5B). […] Next, the inventors evaluated whether antiviral activity of compound 7 could be affected by the source of virus inoculum. […]

[1] = tested on: albumin (secreted, cellular toxicity marker); experiment: Albumin (in vitro tox), HepaRG; settings: human
Experimental: as §1
A custom, Luminex-based multiplex assay that simultaneously measured HBeAg, albumin, and HBsAg was developed by Radix BioSolutions (Georgetown, Tex.). This is a sandwich immunoassay; each capture antibody was coupled with xMAP™ Luminex magnetic beads. […] Samples were read on FlexMAP 3D (Luminex) and analyzed by Genedata software.
Most of HBV in vitro studies, including evaluation of compound antiviral activity, are performed in hepatoma cell lines (HepaRG or HepG2-NTCP) infected with cell culture-derived HBV (e.g. HepG2.2.15-derived virus, GT D). […] To address the first question, PHH (in 384-well plate) were infected with four clinical HBV isolates (GT A-D, at MOI 40). […] Most HBV in vitro studies are performed in hepatoma cell lines (e.g. HepaRG or HepG2 cell lines) utilizing HepG2-derived HBV as the virus inoculum.

O=C(NC(CO)CO)c1c[nH]c2ncc(C3CC3)nc12 [compound 7]
IC50 (cccDNA; HepG2.2.15-derived HBV GT D, MOI 40, read-out: cccDNA IC50 (μM) Median): 25.9 µM
IC50 (cccDNA; HepG2.2.15-derived HBV GT D, MOI 125, read-out: cccDNA IC50 (μM) Median): 27.2 µM
IC50 (cccDNA; patient-derived HBV GT D, MOI 125, read-out: cccDNA IC50 (μM) Median): 7.05 µM
cccDNA IC50 (μM) Median (cccDNA; patient-derived HBV GT D, MOI 40): below LLOQ
IC50 (pgRNA; HepG2.2.15-derived HBV GT D, MOI 40, read-out: pgRNA IC50 (μM) Median): 16.8 µM
IC50 (pgRNA; HepG2.2.15-derived HBV GT D, MOI 125, read-out: pgRNA IC50 (μM) Median): 26.6 µM
IC50 (pgRNA; patient-derived HBV GT D, MOI 40, read-out: pgRNA IC50 (μM) Median): 1.93 µM
IC50 (pgRNA; patient-derived HBV GT D, MOI 125, read-out: pgRNA IC50 (μM) Median): 4.62 µM
IC50 ([1]; HepG2.2.15-derived HBV GT D, MOI 40, read-out: In vitro tox albumin IC50 (μM) Median): 24.9 µM
IC50 ([1]; HepG2.2.15-derived HBV GT D, MOI 125, read-out: In vitro tox albumin IC50 (μM) Median): 26.6 µM
IC50 ([1]; HepaRG cells infected with HBV, patient-derived HBV GT D, MOI 40, read-out: In vitro tox albumin IC50 (μM) Median): 23.4 µM
IC50 ([1]; HepaRG cells infected with HBV, patient-derived HBV GT D, MOI 125, read-out: In vitro tox albumin IC50 (μM) Median): 25.7 µM

Reference: patent US20230248723A1, “PYRROLO[2,3-B]PYRAZINE COMPOUNDS AS CCCDNA INHIBITORS FOR THE TREATMENT OF HEPATITIS B VIRUS (HBV) INFECTION” (Hoffmann-La Roche Inc., priority 2017, published 2023)
